Assay results from article PMC4941342, “Proteasomal degradation of sphingosine kinase 1 and inhibition of dihydroceramide desaturase by the sphingosine kinase inhibitors, SKi or ABC294640, induces growth arrest in androgen-independent LNCaP-AI prostate cancer cells” (Oncotarget, 2016).

Biological target: T1, dihydroceramide desaturase (Des1) (Homo sapiens, UniProt O15121)
T1 construct: gene DEGS1
T1 sequence (O15121 2-323): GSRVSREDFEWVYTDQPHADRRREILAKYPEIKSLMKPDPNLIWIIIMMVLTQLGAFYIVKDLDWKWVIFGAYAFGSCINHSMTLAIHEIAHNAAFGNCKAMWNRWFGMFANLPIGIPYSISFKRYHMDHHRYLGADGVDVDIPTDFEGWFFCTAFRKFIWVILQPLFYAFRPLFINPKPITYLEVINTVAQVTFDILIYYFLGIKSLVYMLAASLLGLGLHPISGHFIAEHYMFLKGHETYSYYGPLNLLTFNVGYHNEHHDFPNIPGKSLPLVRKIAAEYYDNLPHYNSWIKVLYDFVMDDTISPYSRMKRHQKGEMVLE
Assay: Des1 activity in intact Jurkat cells labeled with DhCer-C6-NBD, HPLC with fluorescence detection
Assay type: cell-based

| Compound | IC50 [µM] |
| --- | --- |
| O=C(NCc1ccncc1)C12CC3CC(C1)CC(c1ccc(Cl)cc1)(C3)C2 [ABC294640, 3-(4-chlorophenyl)-adamantane-1-carboxylic acid (pyridin-4-ylmethyl)amide] | 10.2 |
| Oc1ccc(Nc2nc(-c3ccc(Cl)cc3)cs2)cc1 [SKi, 2-(p-hydroxyanilino)-4-(p-chlorophenyl)thiazole] | 0.63 to 0.69 |
